Laboratory results: patent publication US20160257927A1, “THREE-DIMENSIONAL CELL CULTURE USING NANOFIBER SLURRIES AND NANO-STRUCTURED SUBSTRATES” (UCL BUSINESS PLC, priority 2015, published 2016)

System: Lung cancer A549 cells
Assay: Chemosensitivity to anticancer drugs in 2D TCP and 3D scaffold (MTS CellTiter 96 cell viability)
Assay type: cell-based, human
Settings: 48 hrs treatment; 2D TCP vs 3D CA/Rayon, 1:9 scaffold; 25000 cells seeded
Procedure: FIG. 18. Chemosensitivity of cancer cell lines in response to 48 hrs treatment with anticancer drugs when cultured in 2D Tissue Culture Plates (TCP) and 3D CA/Rayon, 1:9 scaffold.
25000 cells of tested cell lines were seeded in 2D TCP and 3D scaffold. Cells were treated with anticancer drugs for 48 hrs and then cell viability was measured using MTS CellTiter 96® Aqueous One Solution assay (Promega).

O=c1[nH]cc(F)c(=O)[nH]1 [5-fluorouracil]
chemosensitivity (cell viability) of A549 cells: more sensitive to 5-fluorouracil and doxorubicin in 2D TCP than in 3D scaffolds

COc1cccc2c1C(=O)c1c(O)c3c(c(O)c1C2=O)C[C@@](O)(C(=O)CO)C[C@@H]3O[C@H]1C[C@H](N)[C@H](O)[C@H](C)O1 [doxorubicin]
chemosensitivity (cell viability) of A549 cells: more sensitive to 5-fluorouracil and doxorubicin in 2D TCP than in 3D scaffolds
